Results published in patent US10287295B2, “TGF-β inhibitors” (Rigel Pharmaceuticals, Inc., priority 2015, dated 2019).

Tests used:
HIS-TGF-βR1 T204D = HIS-TGF-βR1 T204D (Homo sapiens (Human), UniProt P36897, T204D); experiment: HTRF probe displacement assay, HIS-TGF-βR1 T204D; conditions: read-out: TGFbr1 IC50, 1 nM HIS-TGF-βR1 T204D, 1 hour at room temperature
[1] = system: TGF-β signaling (TGF-β pSMAD, MPC-11); experiment: AlphaScreen SureFire SMAD3 (p-Ser423/425) assay, inhibition of TGF-β signaling; type: cell-based; conditions: Mus musculus, MPC-11, inhibition of TGF-β signaling, p-SMAD3 readout
[2] = system: GDF8 signaling (GDF pSMAD, MPC11); experiment: AlphaScreen SureFire SMAD3 (p-Ser423/425) assay, inhibition of GDF8 signaling; type: cell-based; conditions: Mus musculus, MPC-11, inhibition of GDF8 signaling, p-SMAD3 readout

Sequence of HIS-TGF-βR1 T204D (P36897 34-503 T204D): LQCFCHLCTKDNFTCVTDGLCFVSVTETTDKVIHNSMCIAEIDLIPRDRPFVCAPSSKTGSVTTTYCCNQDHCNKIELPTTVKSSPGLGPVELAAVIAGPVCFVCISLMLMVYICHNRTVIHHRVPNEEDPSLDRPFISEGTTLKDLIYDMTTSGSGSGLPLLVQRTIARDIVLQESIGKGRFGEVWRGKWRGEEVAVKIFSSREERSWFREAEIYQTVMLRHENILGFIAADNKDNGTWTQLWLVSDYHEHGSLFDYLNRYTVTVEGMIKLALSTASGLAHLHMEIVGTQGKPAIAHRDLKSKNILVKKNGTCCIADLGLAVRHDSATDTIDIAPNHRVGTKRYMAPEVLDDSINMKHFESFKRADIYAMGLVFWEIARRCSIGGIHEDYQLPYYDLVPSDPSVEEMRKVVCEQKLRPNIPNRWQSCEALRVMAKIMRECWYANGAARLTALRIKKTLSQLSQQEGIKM

Structure (SMILES) | IC50 [1] [nM] | IC50 [2] [nM] | IC50 (HIS-TGF-βR1 T204D) [nM]
Cc1nc(-c2ccc(F)cc2)c(-c2ccc3ncc(C#N)n3c2)n1CC(F)F [272A′, 6-(1-(2,2-difluoroethyl)-4-(4-fluorophenyl)-2-methyl-1H-imidazol-5-yl)imidazo[1,2-a]pyridine-3-carbonitrile] |  |  | 251
NC(=O)c1cnc2ccc(-c3c(-c4ccc(F)c(Cl)c4)ncn3[C@H]3C[C@@H](O)C3)nn12 [140′, 6-(4-(3-chloro-4-fluorophenyl)-1-((1s,3s)-3-hydroxycyclobutyl)-1H-imidazol-5-yl)imidazo[1,2-b]pyridazine-3-carboxamide] |  |  | 2.8
Cc1cccc(-c2nc[nH]c2-c2ccc3cn[nH]c3c2)c1 [Compound 16, 6-(4-(m-Tolyl)-1H-imidazol-5-yl)-1H-indazole] | 100 | 20 | 
Cc1cccc(-c2ncsc2-c2ccc3cn[nH]c3c2)c1 [Compound 153, 5-(1H-indazol-6-yl)-4-(m-tolyl)thiazole] | 207 | 11.3 | 
Cc1cc(-c2nc(N)sc2-c2ccc3nccnc3c2)ccc1F [Compound 158, 4-(4-fluoro-3-methylphenyl)-5-(quinoxalin-6-yl)thiazol-2-amine] | 228 | 36 | 
Cc1cccc(-c2nc[nH]c2-c2ccc3nccnc3c2)c1 [Compound 20, 6-(4-(m-Tolyl)-1H-imidazol-5-yl)quinoxaline] | 160 | 180 | 
Nc1nc(-c2cccc(F)c2)c(-c2ccc3ncsc3c2)s1 [Compound 178, 5-(benzo[d]thiazol-6-yl)-4-(3-fluorophenyl)thiazol-2-amine] | 1100 | 252 | 
Cc1cccc(-c2ncn(C)c2-c2ccc3nccn3c2)c1 [Compound 45, 6-(1-Methyl-4-(m-tolyl)-1H-imidazol-5-yl)imidazo[1,2-a]pyridine] | 1780 | 440 | 
Cc1cccc(-c2ncn(C)c2-c2ccc3ncn(C)c3c2)c1 [Compound 43, 1-Methyl-6-(1-methyl-4-(m-tolyl)-1H-imidazol-5-yl)-1H-benzo[d]imidazole] | 530 | 190 | 
Cc1cc(-c2nc(N)sc2-c2ccc3[nH]ncc3c2)ccc1F [Compound 160, 4-(4-fluoro-3-methylphenyl)-5-(1H-indazol-5-yl)thiazol-2-amine] | 99.8 | 38.5 | 
CCc1nc(-c2cccc(Cl)c2)c(-c2ccc3nccnc3c2)[nH]1 [Compound 129, 6-(4-(3-Chlorophenyl)-2-ethyl-1H-imidazol-5-yl)quinoxaline] | 1340 | 290 | 
Nc1nc(-c2cccc(C(F)(F)F)c2)c(-c2ccc3[nH]ncc3c2)s1 [Compound 175, 5-(1H-indazol-5-yl)-4-(3-(trifluoromethyl)phenyl)thiazol-2-amine] | 938 | 154 | 
CCc1nc(-c2ccc(F)cc2)c(-c2ccc3cn[nH]c3c2)[nH]1 [Compound 120, 6-(2-Ethyl-4-(4-fluorophenyl)-1H-imidazol-5-yl)-1H-indazole] | 8160 | 470 | 

Continued, in another order:

IC50 [1] [nM] | IC50 [2] [nM] | Structure (SMILES) | IC50 (HIS-TGF-βR1 T204D) [nM]
11500 | 1020 | Cc1nc(-c2ccc(F)c(F)c2)c(-c2ccc3ncccc3c2)[nH]1 [Compound 88, 6-(4-(3,4-Difluorophenyl)-2-methyl-1H-imidazol-5-yl)quinoline] | 
1370 | 170 | Cc1nc(-c2cc(F)c(F)cc2F)c(-c2ccc3ncccc3c2)[nH]1 [Compound 100, 6-(2-Methyl-4-(2,4,5-trifluorophenyl)-1H-imidazol-5-yl)quinoline] | 
3910 | 920 | CCc1nc(-c2ccc(F)c(F)c2)c(-c2ccc3cn[nH]c3c2)[nH]1 [Compound 131, 6-(4-(3,4-Difluorophenyl)-2-ethyl-1H-imidazol-5-yl)-1H-indazole] | 
2620 | 390 | Cc1nc(-c2ccc(F)cc2)c(-c2ccc3nccn3c2)[nH]1 [Compound 81, 6-(4-(4-Fluorophenyl)-2-methyl-1H-imidazol-5-yl)imidazo[1,2-a]pyridine] | 
1880 | 300 | Cc1nc(-c2cc(F)c(F)c(F)c2)c(-c2ccc3ncccc3c2)[nH]1 [Compound 95, 6-(2-Methyl-4-(3,4,5-trifluorophenyl)-1H-imidazol-5-yl)quinoline] | 
2320 | 650 | CCc1nc(-c2ccc(F)c(F)c2)c(-c2ccc3[nH]ncc3c2)[nH]1 [Compound 130, 5-(4-(3,4-Difluorophenyl)-2-ethyl-1H-imidazol-5-yl)-1H-indazole] | 
2910 | 580 | Cc1nc(-c2cc(F)c(F)c(F)c2)c(-c2ccc3nccn3c2)[nH]1 [Compound 94, 6-(2-Methyl-4-(3,4,5-trifluorophenyl)-1H-imidazol-5-yl)imidazo[1,2-a]pyridine] | 
2270 | 470 | Cc1nc(-c2cc(F)c(F)c(F)c2)c(-c2ccc3ncnn3c2)[nH]1 [Compound 92, 6-(2-Methyl-4-(3,4,5-trifluorophenyl)-1H-imidazol-5-yl)-[1,2,4]triazolo[1,5-a]pyridine] | 
4390 | 510 | Cc1nc(-c2ccc(F)c(C)c2)c(-c2ccc3ncccc3c2)[nH]1 [Compound 75, 6-(4-(4-Fluoro-3-methylphenyl)-2-methyl-1H-imidazol-5-yl)quinoline] | 
1430 | 220 | Cc1nc(-c2ccc(F)cc2)c(-c2ccc3[nH]ncc3c2)[nH]1 [Compound 77, 5-(4-(4-Fluorophenyl)-2-methyl-1H-imidazol-5-yl)-1H-indazole] | 
1480 | 500 | Fc1ccc(-c2nc[nH]c2-c2ccc3ncccc3c2)cc1F [Compound 36, 6-(4-(3,4-Difluorophenyl)-1H-imidazol-5-yl)quinoline] | 
